For experiment [1], the target named is T1, Muscarinic M3 receptor (Homo sapiens, UniProt P20309).
T1 construct: purchased Receptor Biology, Inc; host or cells: CHO cells (membranes)
Put plainly: Inhibition of binding of [3H]-N-methylscopolamine to muscarinic M3 receptor. The procedure:
Tests on Inhibition of Binding to Muscarinic Receptors
These tests were performed according to a modification of the method of Hargreaves et al. (Br. J. Pharmacol. 107: 494-501, 1992). Membranes from CHO cells expressing cloned human m1-m5 (Receptor Biology, Inc.) were incubated with 0.2 nM [^3 H]-N-methylscopolamine and each a compound of the present invention to be tested in 0.5 ml of 50 mM Tris-HCl-10 mM MgCl2 -1 mM EDTA (pH 7.4) for 2 hours at 25° C. Free and membrane-bound [^3 H]-N-methylscopolamine were separated by filtration over glass filters (UniFilter-GF/C; Packard Instruments Co., Inc.) using cell harvester (Filtermate™ 196; Packard Instruments Co., Inc.). Then the filter was washed four times with 1 ml of ice-cold Tris-HCl (pH 7.4) and dried at 50° C. After adding a scintillator (Microscinti 0; Packard Instruments Co., Inc.), the radioactivity was counted by a liquid scintillation counter (TopCount™; Packard Instruments Co., Inc.). Non-specific binding was measured in the presence of 1 μM N-methylscopolamine.

The target in experiment [2] is T2, airway M3 receptor (Rattus norvegicus, UniProt P08483).
T2 construct: the trachea was isolated; from tissue; host or cells: isolated trachea of male SD strain rat
T2 sequence (P08483 whole entry): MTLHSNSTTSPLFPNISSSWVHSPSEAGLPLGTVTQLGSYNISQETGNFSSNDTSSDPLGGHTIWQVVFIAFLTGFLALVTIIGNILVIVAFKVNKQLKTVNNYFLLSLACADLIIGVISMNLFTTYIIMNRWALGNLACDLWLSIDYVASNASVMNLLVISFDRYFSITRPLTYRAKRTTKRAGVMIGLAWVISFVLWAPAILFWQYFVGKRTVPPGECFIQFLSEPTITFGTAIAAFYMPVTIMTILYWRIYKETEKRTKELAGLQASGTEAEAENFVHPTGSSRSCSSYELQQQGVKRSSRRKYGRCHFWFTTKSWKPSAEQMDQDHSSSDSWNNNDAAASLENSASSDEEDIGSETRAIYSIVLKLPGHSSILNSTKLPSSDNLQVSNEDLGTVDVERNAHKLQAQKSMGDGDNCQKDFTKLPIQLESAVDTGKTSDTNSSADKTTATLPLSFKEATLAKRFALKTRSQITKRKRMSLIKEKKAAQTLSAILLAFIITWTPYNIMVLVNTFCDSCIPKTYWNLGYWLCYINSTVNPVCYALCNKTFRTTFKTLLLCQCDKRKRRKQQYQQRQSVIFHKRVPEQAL
Put plainly: Antagonism to the airway M3 receptor in an isolated rat trachea (in vitro). It is filed as cell-based. The conditions noted are these: for Kb: isolated rat trachea, carbachol-induced contraction. The procedure: Tests for Antagonism to Muscarinic Receptors (in vitro)
2) Tests for Antagonism to the Airway M3 Receptor in an Isolated Rat Trachea
These tests were performed according to a conventional method. A male SD strain rat (weighing 300-500 g) was killed by exsanguination, and the trachea was isolated. Annular segments (2 mm wide) were cut out from the trachea and cut transversely at the anterior cartilage part to make open ring preparation. A preparation was suspended in a Magnus tube filled with 5 ml of Krebs-Henseleit solution (gassed with 95% O2 -5% CO2 and kept at 32° C.) with an initial tension of 1.0 g and a resting tension of 0.6 g. The tension of the preparation was recorded isometrically. After being equilibrated for an hour, the preparation was made to contract twice by treatment with 10^-4 M carbachol, and the second contraction induced by carbachol was used as the reference contraction. After the preparation was washed with fresh solution to be restored to the base line, a test compound was administered thereto (or no treatment was given). Ten minutes later, carbachol (10^-8 to 10^-3 M) was cumulatively administered in three-fold increasing doses to obtain a dose-response curve. The dose-response curve was plotted by expressing responses as percentages based on the reference contraction of the preparation as 100%. The antagonistic potency (K^B value) of the test compound was determined from the degree of shift of the dose-response curve obtained by treatment with the test compound.

Experiment [3] deals with T3, Muscarinic M3 Receptor (Rattus norvegicus, UniProt P08483).
T3 construct: male rats of the Sprague-Dawley strain; from tissue; host or cells: airways of living male Sprague-Dawley rats (in vivo)
T3 sequence (P08483 whole entry): as above
Put plainly: Bronchodilation in rats (p.o.), inhibition of acetylcholine-induced increase in airway resistance. It is filed as in vivo. The following applies: po, 1 h, acetylcholine 50 μg/kg i.v. 60 minutes after test compound, read-out: Inhibition of Airway Contraction ED50 po. The procedure: (§1) Tests for Antagonism Against Muscarinic M3 Receptor (in vivo)
1-B) Tests for Bronchodilation in Rats (p.o.)
Eight- to eleven-weeks-old male rats of Sprague-Dawley strain weighing 380-420 g were orally administered with a test compound. The rats were treated in the identical manner as in the i.v. test, starting 30 minutes after the administration, and their airway resistance values were measured. The acetylcholine-(50 μg/kg, i.v.) induced airway resistance increase were measured 60 minutes after the administration of test compounds. In controls, isotonic sodium chloride solution was used in place of the test compounds and otherwise identical procedures were repeated, the ratio between the two airway resistance values whereby being set to be 100%.

Experiment [4] deals with Muscarinic M3 Receptor. Put plainly: Bronchodilation in dogs (p.o.), methacholine provocation test. It is filed as in vivo, dog. The following applies: beagle dogs, 1 mg/kg p.o., 4 hours after administration. The procedure:
as §1
2) Tests for Bronchodilation in Dogs (p.o.)
Twelve- to twenty-four-months-old male beagle dogs (weighing 10-15 kg) were anesthetized with pentobarbital (30 mg/kg, i.v.) and intubated in their bronchus. Their airway sensitivity to inhaled methacholine were measured at least twice at two-weeks interval, and the dogs showing a reproducible methacholine reaction threshold values^1) ware selected. To those dogs whose methacholine reaction threshold value had been confirmed, the test compounds were orally administered (1 mg/kg). Four hours after the administration, the methacholine provocation test was conducted, and then the methacholine reaction threshold value^2) after administration of the test compound was obtained.
The bronchodilator activity of the test compound was determined following equation: [formula]
The methacholine provocation test was conducted using Astograph TCK-6100H Model (Chest). Methacholine chloride was used as bronchoconstritor, which was diluted with isotonic sodium chloride solution in 10-grade concentration levels starting from 40,000 μg/ml, as 20,000, 10,000, 5,000, 2,500, 1,250, 625, 312.5, 156 and 78 μg/ml. These methacholine aerosols were inhaled to the test animal each for 1 min, starting from the lowest concentration level, and respiration resistance was continuously recorded. The concentration level at which the respiration resistance reached twice the initial value was recorded as the methacholine threshold value.

By Ki is commonly meant a dissociation constant, usually derived from enzyme kinetics or from competition with a known ligand. One may read the Kb as the equilibrium dissociation constant of an antagonist, usually derived from a functional assay. A lower Kb goes with higher antagonist affinity. By ED50 is commonly meant the dose that gives a 50% effect, or the effect in half of the subjects.

T1 sequence (P20309 whole entry): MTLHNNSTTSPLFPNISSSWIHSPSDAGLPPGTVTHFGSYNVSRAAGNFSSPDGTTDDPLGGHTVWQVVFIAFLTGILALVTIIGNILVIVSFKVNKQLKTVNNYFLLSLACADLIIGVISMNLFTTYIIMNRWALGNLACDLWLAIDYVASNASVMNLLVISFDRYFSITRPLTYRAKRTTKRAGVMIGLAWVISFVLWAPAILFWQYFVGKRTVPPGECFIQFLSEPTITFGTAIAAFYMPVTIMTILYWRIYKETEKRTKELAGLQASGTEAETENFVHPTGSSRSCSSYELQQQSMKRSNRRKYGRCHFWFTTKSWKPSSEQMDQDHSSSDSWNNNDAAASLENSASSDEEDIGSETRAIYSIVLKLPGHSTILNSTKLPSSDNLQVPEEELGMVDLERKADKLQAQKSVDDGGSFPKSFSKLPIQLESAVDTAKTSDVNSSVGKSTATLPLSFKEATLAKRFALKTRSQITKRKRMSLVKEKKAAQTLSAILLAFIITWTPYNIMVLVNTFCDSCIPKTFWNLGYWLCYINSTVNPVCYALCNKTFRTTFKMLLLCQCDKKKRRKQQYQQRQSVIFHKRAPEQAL

Turning to `Cl.Cl.Nc1cccc(CN2CCC(NC(=O)[C@](O)(c3ccccc3)[C@@H]3CCC(F)(F)C3)CC2)n1` [Example 20, (2R)-N-[1-(6-aminopyridin-2-ylmethyl)piperidin-4-yl]-2-[(1R)-3,3-difluorocyclopentyl]-2-hydroxy-2-phenylacetamide dihydrochloride], the Ki in experiment [1] (CHO cell membranes expressing cloned human receptor, 0.2 nM [3H]-N-methylscopolamine, pH 7.4, 2 hours, 25° C, read-out: Ki M3 (inhibitory effects on binding to muscarinic M3 receptor)) worked out at 3 nM. The “M2/M3 (ratio of binding Ki)” value in experiment [1] (selectivity ratio of Ki values, binding) is on record as 180. Moreover, the Kb in experiment [2] is 1.6 nM. Further, in experiment [2] (selectivity ratio of KB values, right atrium M2 / trachea M3), the “M2/M3 (ratio of KB)” value was 630. Also, the ED50 in experiment [3] came to 0.37 mg/kg. Moreover, the “Methacholine Inhalation-inducing Test shift value (after 4 hrs.)” value in experiment [4] was greater than 69.
The molecule `O=C(NC1CCN(Cc2ccsc2)CC1)[C@](O)(c1ccccc1)[C@@H]1CCC(F)(F)C1` [Example 11, (2R)-N-[1-(3-thienylmethyl)piperidin-4-yl]-2-[(1R)-3,3-difluorocyclopentyl]-2-hydroxy-2-phenylacetamide] gave a Kb in experiment [2] of 0.95 nM. The ED50 in experiment [3] turned out to be 0.22 mg/kg. In addition, the “Methacholine Inhalation-inducing Test shift value (after 4 hrs.)” value in experiment [4] is reported as 21.

The values above are taken from US5948792A, “Fluorine-containing 1,4-disubstituted piperidine derivatives” (Banyu Pharmaceutical Co., Ltd., priority 1996, dated 1999).
